Earlier results in patent US20250127693A1, “Materials for Desensitization and Targeted Drug Delivery to Teeth and Gums” (South Dakota Board of Regents, priority 2023, published 2025).

Columns and labels:
[1] = system: mammalian cells; conditions: prolonged exposures
[2] = system: cancerous cells

C=CCc1ccc(O)c(OC)c1 [eugenol]
concentration at which toxicity for mammalian cells starts [1]: 164 µg/mL | concentration at which eugenol inhibits proliferation of cancerous cells [2]: 82 µg/mL
